Measured values from ChEMBL document CHEMBL3822440, “Semi-synthesis and antiproliferative evaluation of PEGylated pentacyclic triterpenes” (Eur J Med Chem, 2016).
pIC50: −log10 of the molar value.

Experiments:
HT-29 [1] = assay: Cell cycle arrest in human HT-29 cells assessed as accumulation at G2/M phase at cytotoxic IC50 after 72 hrs by propidium iodide staining based flow cytometry (reference value: 6.23 +/- 1.7%); format: functional
[2] = Cytotoxicity against mouse B16F10 cells assessed as growth inhibition after 72 hrs by MTT assay; format: functional, cell-based; conditions: B16-F10, 72 h
HepG2 [3] = assay: Induction of apoptosis in human HepG2 cells assessed as necrotic cells at cytotoxic IC50 after 72 hrs by Annexin V-FITC/propidium iodide staining based flow cytometry (reference value: 0.1 +/- 0.01%); format: functional
HepG2 [4] = assay: Cell cycle arrest in human HepG2 cells assessed as accumulation at G2/M phase at cytotoxic IC50 after 72 hrs by propidium iodide staining based flow cytometry (reference value: 8.47 +/- 2.55%); format: functional
HepG2 [5] = assay: Cytotoxicity against human HepG2 cells assessed as growth inhibition after 72 hrs by MTT assay; format: functional, cell-based; conditions: HepG2, 72 h
[6] = Cell cycle arrest in mouse B16F10 cells assessed as accumulation at G2/M phase at cytotoxic IC50 after 72 hrs by propidium iodide staining based flow cytometry (reference value: 1.01 +/- 0.13%); format: functional, B16-F10
[7] = Cell cycle arrest in mouse B16F10 cells assessed as accumulation at S phase at cytotoxic IC50 after 72 hrs by propidium iodide staining based flow cytometry (reference value: 48.31 +/- 0.74%); format: functional, B16-F10
[8] = Induction of apoptosis in mouse B16F10 cells assessed as early apoptotic cells at cytotoxic IC50 after 72 hrs by Annexin V-FITC/propidium iodide staining based flow cytometry (reference value: 0.75 +/- 0.07%); format: functional, B16-F10
HepG2 [9] = assay: Cell cycle arrest in human HepG2 cells assessed as accumulation at G0/G1 phase at cytotoxic IC50 after 72 hrs by propidium iodide staining based flow cytometry (reference value: 39.41 +/- 1.56%); format: functional
HT-29 [10] = assay: Cytotoxicity against human HT-29 cells assessed as growth inhibition after 72 hrs by MTT assay; format: functional, cell-based; conditions: HT-29, 72 h
HT-29 [11] = assay: Disruption of mitochondrial membrane potential in human HT-29 cells assessed as rhodamine123 positive cells at cytotoxic IC50 after 72 hrs by propidium iodide staining based fluorescence spectroscopic analysis (reference value: 94.25 +/- 0.35%); format: functional
[12] = Induction of apoptosis in mouse B16F10 cells assessed as necrotic cells at cytotoxic IC50 after 72 hrs by Annexin V-FITC/propidium iodide staining based flow cytometry (reference value: 0.75 +/- 0.07%); format: functional, B16-F10
[13] = Induction of apoptosis in mouse B16F10 cells assessed as live cells at cytotoxic IC50 after 72 hrs by Annexin V-FITC/propidium iodide staining based flow cytometry (reference value: 97.55 +/- 0.5%); format: functional, B16-F10
HT-29 [14] = assay: Cell cycle arrest in human HT-29 cells assessed as accumulation at G0/G1 phase at cytotoxic IC50 after 72 hrs by propidium iodide staining based flow cytometry (reference value: 55.18 +/- 0.22%); format: functional
HT-29 [15] = assay: Cell cycle arrest in human HT-29 cells assessed as accumulation at S phase at cytotoxic IC50 after 72 hrs by propidium iodide staining based flow cytometry (reference value: 48.31 +/- 1.49%); format: functional
HepG2 [16] = assay: Induction of apoptosis in human HepG2 cells assessed as live cells at cytotoxic IC50 after 72 hrs by Annexin V-FITC/propidium iodide staining based flow cytometry (reference value: 99.55 +/- 0.07%); format: functional
B16-F10 [17] = assay: Potency index, ratio of oleanolic acid IC50 to compound IC50 for mouse B16F10 cells; format: functional
[18] = Disruption of mitochondrial membrane potential in mouse B16F10 cells assessed as rhodamine123 positive cells at cytotoxic IC50 after 72 hrs by propidium iodide staining based fluorescence spectroscopic analysis (reference value: 95.6 +/- 0.57%); format: functional, B16-F10
HT-29 [19] = assay: Induction of apoptosis in human HT-29 cells assessed as late apoptotic cells at cytotoxic IC50 after 72 hrs by Annexin V-FITC/propidium iodide staining based flow cytometry (reference value: 0.65 +/- 0.35%); format: functional
[20] = Induction of apoptosis in mouse B16F10 cells assessed as late apoptotic cells at cytotoxic IC50 after 72 hrs by Annexin V-FITC/propidium iodide staining based flow cytometry (reference value: 0.75 +/- 0.21%); format: functional, B16-F10
HT-29 [21] = assay: Induction of apoptosis in human HT-29 cells assessed as necrotic cells at cytotoxic IC50 after 72 hrs by Annexin V-FITC/propidium iodide staining based flow cytometry (reference value: 1.05 +/- 0.35%); format: functional
HT-29 [22] = assay: Disruption of mitochondrial membrane potential in human HT-29 cells assessed as rhodamine123 negative cells at cytotoxic IC50 after 72 hrs by propidium iodide staining based fluorescence spectroscopic analysis (reference value: 5.8 +/- 0.42%); format: functional
HepG2 [23] = assay: Disruption of mitochondrial membrane potential in human HepG2 cells assessed as rhodamine123 negative cells at cytotoxic IC50 after 72 hrs by propidium iodide staining based fluorescence spectroscopic analysis (reference value: 11.7 +/- 6.8%); format: functional
[24] = Cell cycle arrest in mouse B16F10 cells assessed as accumulation at G0/G1 phase at cytotoxic IC50 after 72 hrs by propidium iodide staining based flow cytometry (reference value: 50.69 +/- 0.61%); format: functional, B16-F10
HT-29 [25] = assay: Induction of apoptosis in human HT-29 cells assessed as early apoptotic cells at cytotoxic IC50 after 72 hrs by Annexin V-FITC/propidium iodide staining based flow cytometry (reference value: 1.65 +/- 0.07%); format: functional
HepG2 [26] = assay: Disruption of mitochondrial membrane potential in human HepG2 cells assessed as rhodamine123 positive cells at cytotoxic IC50 after 72 hrs by propidium iodide staining based fluorescence spectroscopic analysis (reference value: 88.3 +/- 8.87%); format: functional
HepG2 [27] = assay: Induction of apoptosis in human HepG2 cells assessed as late apoptotic cells at cytotoxic IC50 after 72 hrs by Annexin V-FITC/propidium iodide staining based flow cytometry relative to control; format: functional
HepG2 [28] = assay: Potency index, ratio of oleanolic acid IC50 to compound IC50 for human HepG2 cells; format: functional
HT-29 [29] = assay: Induction of apoptosis in human HT-29 cells assessed as live cells at cytotoxic IC50 after 72 hrs by Annexin V-FITC/propidium iodide staining based flow cytometry (reference value: 96.65 +/- 0.78%); format: functional
HepG2 [30] = assay: Induction of apoptosis in human HepG2 cells assessed as early apoptotic cells at cytotoxic IC50 after 72 hrs by Annexin V-FITC/propidium iodide staining based flow cytometry (reference value: 0.3 +/- 0.01%); format: functional
HT-29 [31] = assay: Potency index, ratio of oleanolic acid IC50 to compound IC50 for human HT-29 cells; format: functional
HepG2 [32] = assay: Cell cycle arrest in human HepG2 cells assessed as accumulation at S phase at cytotoxic IC50 after 72 hrs by propidium iodide staining based flow cytometry (reference value: 54.71 +/- 2.37%); format: functional
[33] = Disruption of mitochondrial membrane potential in mouse B16F10 cells assessed as rhodamine123 negative cells at cytotoxic IC50 after 72 hrs by propidium iodide staining based fluorescence spectroscopic analysis (reference value: 4.45 +/- 0.64%); format: functional, B16-F10
HT-29 [34] = assay: Potency index, ratio of maslinic acid IC50 to compound IC50 for human HT-29 cells; format: functional
B16-F10 [35] = assay: Potency index, ratio of maslinic acid IC50 to compound IC50 for mouse B16F10 cells; format: functional
HepG2 [36] = assay: Potency index, ratio of maslinic acid IC50 to compound IC50 for human HepG2 cells; format: functional

Compound | Activity (HT-29 [1]) [%] | pIC50 [2] | Activity (HepG2 [3]) [%] | Activity (HepG2 [4]) [%] | pIC50 (HepG2 [5]) | Activity [6] [%] | Activity [7] [%] | Activity [8] [%] | Activity (HepG2 [9]) [%] | pIC50 (HT-29 [10]) | Activity (HT-29 [11]) [%] | Activity [12] [%] | Activity [13] [%] | Activity (HT-29 [14]) [%] | Activity (HT-29 [15]) [%] | Activity (HepG2 [16]) [%] | Activity [18] [%] | Activity (HT-29 [19]) [%] | Activity [20] [%] | Activity (HT-29 [21]) [%] | also measured
CC1(C)CC[C@]2(C(=O)NCCCOCCOCCOCCCN)CC[C@]3(C)C(=CC[C@@H]4[C@@]5(C)CC[C@H](O)C(C)(C)[C@@H]5CC[C@]43C)[C@@H]2C1 | 8.12 | 5.42 | 0.35 | 0.34 | 6.66 | 4.78 | 31.33 | 59.65 | 52.7 | 5.45 | 23.75 | 0 | 27.55 | 87.11 | 4.78 | 41.35 | 20.75 | 7.45 | 12.85 | 0.25 | Ratio IC50 (B16-F10 [17]): 28.1; Activity (HT-29 [22]): 76.3%; Activity (HepG2 [23]): 19.6%; Activity [24]: 63.89%; Activity (HT-29 [25]): 19.7%; Activity (HepG2 [26]): 80.45%; Activity (HepG2 [27]): 22.45%; Ratio IC50 (HepG2 [28]): 962.7; Activity (HT-29 [29]): 72.45%; Activity (HepG2 [30]): 35.9%; Ratio IC50 (HT-29 [31]): 120.1; Activity (HepG2 [32]): 46.97%; Activity [33]: 79.3%
COCCOCCOCC(=O)O[C@@H]1C[C@]2(C)[C@H]3CC=C4[C@@H]5CC(C)(C)CC[C@]5(C(=O)OCc5ccccc5)CC[C@@]4(C)[C@]3(C)CC[C@H]2C(C)(C)[C@H]1OC(=O)COCCOCCOC | 1.51 | 4.68 | 0 | 15.04 | 4.89 | 3.85 | 13.13 | 29.6 | 65.2 | 4.50 | 3.15 | 0.8 | 2.7 | 91.87 | 6.63 | 37 | 81.35 | 6.7 | 67.25 | 0.15 | Ratio IC50 (HT-29 [34]): 1; Ratio IC50 (B16-F10 [35]): 1.7; Activity (HT-29 [22]): 96.9%; Activity (HepG2 [23]): 54.25%; Activity [24]: 83.03%; Activity (HT-29 [25]): 43.95%; Ratio IC50 (HepG2 [36]): 7.8; Activity (HepG2 [26]): 45.7%; Activity (HepG2 [27]): 44.35%; Activity (HT-29 [29]): 48.95%; Activity (HepG2 [30]): 18.65%; Activity (HepG2 [32]): 19.76%; Activity [33]: 18.6%
COCCOCCOCC(=O)O[C@H]1CC[C@]2(C)[C@H]3CC=C4[C@@H]5CC(C)(C)CC[C@]5(C(=O)O)CC[C@@]4(C)[C@]3(C)CC[C@H]2C1(C)C | 0 | 4.76 | 0.2 | 14.18 | 4.76 | 0.28 | 25.44 | 6.8 | 38.88 | 4.87 | 88.65 | 0.35 | 52.75 | 63.47 | 49.98 | 43.5 | 79.45 | 13.45 | 39.6 | 0 | Ratio IC50 (B16-F10 [17]): 6.2; Activity (HT-29 [22]): 11.35%; Activity (HepG2 [23]): 86.05%; Activity [24]: 74.28%; Activity (HT-29 [25]): 34.7%; Activity (HepG2 [26]): 13.95%; Activity (HepG2 [27]): 17.7%; Ratio IC50 (HepG2 [28]): 12.1; Activity (HT-29 [29]): 51.85%; Activity (HepG2 [30]): 38.65%; Ratio IC50 (HT-29 [31]): 31.9; Activity (HepG2 [32]): 45.44%; Activity [33]: 20.65%
